The structures appear in SMILES notation. Values joined by “and” are separate entries in the source; they are usually repeats but may differ in a detail not shown here. Equal values may be shown once. Inconclusive results and toxic doses are left out.

The record followed here is PubChem BioAssay AID330 (DTP/NCI, 2004).

For the assay, the system named is P388 leukemia ip, CD2F1 mice, survival T/C. Put plainly: NCI In Vivo Anticancer Drug Screen. Data for tumor model P388 Leukemia (intraperitoneal) in CD2F1 (CDF1) mice. Particulars: endpoint: median survival time, higher = longer survival. As to the method:
The antitumor activity of compounds was measured in mice bearing transplantable tumors. Survival or tumor size were measured and the results are expressed as the measurement made in the treated group (T) divided by the measurement made in the vehicle treated control group (C). The tumor model used in this assay is P388 Leukemia (intraperitoneal) in CD2F1 (CDF1) mice

The mark [1] stands for this setting: dose: 60.0 mg/kg/injection, schedule: Q01DX005 (ip), vehicle: saline with Tween-80.
Setting [2] is: dose: 60.0 mg/kg/injection, schedule: Q01DX005 (ip), vehicle: saline.
The mark [3] stands for this setting: dose: 120.0 mg/kg/injection, schedule: Q01DX005 (ip), vehicle: saline with Tween-80.
Where [4] appears, read: dose: 120.0 mg/kg/injection, schedule: Q01DX005 (ip), vehicle: saline.
Where [5] appears, read: dose: 240.0 mg/kg/injection, schedule: Q01DX005 (ip), vehicle: saline with Tween-80.
[6] abbreviates: dose: 240.0 mg/kg/injection, schedule: Q01DX005 (ip), vehicle: saline.
Setting [7] is: dose: 50.0 mg/kg/injection, schedule: Q01DX009 (ip), vehicle: Klucel (hydroxypropylcellulose) (HPC).
[8] abbreviates: dose: 100.0 mg/kg/injection, schedule: Q01DX009 (ip), vehicle: Klucel (hydroxypropylcellulose) (HPC).
Where [9] appears, read: dose: 50.0 mg/kg/injection, schedule: Q01DX005 (ip), vehicle: saline with Tween-80.
Setting [10] is: dose: 100.0 mg/kg/injection, schedule: Q01DX005 (ip), vehicle: saline with Tween-80.
Where [11] appears, read: dose: 200.0 mg/kg/injection, schedule: Q01DX005 (ip), vehicle: saline with Tween-80.
[12] abbreviates: dose: 50.0 mg/kg/injection, schedule: Q04DX003 (ip), vehicle: saline.

As to `COC1/C=C/OC2(C)Oc3c(C)c(O)c4c(O)c(c(/C=N/N(C)c5nc6c(N)ncnc6n5C5OC(CO)C(O)C5O)c(O)c4c3C2=O)NC(=O)C(C)=C/C=C/C(C)C(O)C(C)C(O)C(C)C(OC(C)=O)C1C` (stereo not given), the T/C is, setting by setting: (dose: 50.0 mg/kg/injection, schedule: Q01DX009 (ip), vehicle: saline with Tween-80) 101 % of control; (dose: 100.0 mg/kg/injection, schedule: Q01DX009 (ip), vehicle: saline with Tween-80) 97 % of control; (dose: 200.0 mg/kg/injection, schedule: Q01DX009 (ip), vehicle: saline with Tween-80) 101 % of control.
As for `Nc1nc2c(c(=O)[nH]1)NC(CCNc1ccc(C(=O)O)cc1)CN2` (stereo not given), the T/C is 104 % of control (dose: 12.5 mg/kg/injection, schedule: Q01DX009 (ip), vehicle: saline with Tween-80); 90 % of control (dose: 12.5 mg/kg/injection, schedule: Q04DX003 (ip), vehicle: saline with Tween-80); 113 % of control (dose: 25.0 mg/kg/injection, schedule: Q01DX009 (ip), vehicle: saline with Tween-80); 95 % of control (dose: 25.0 mg/kg/injection, schedule: Q04DX003 (ip), vehicle: saline with Tween-80); 113 % of control (dose: 50.0 mg/kg/injection, schedule: Q04DX003 (ip), vehicle: saline with Tween-80).
With `CN1CCN(c2ccc3nc(-c4ccc5nc(-c6ccc(O)cc6)[nH]c5c4)[nH]c3c2)CC1`, the T/C (dose: 50.0 mg/kg/injection, schedule: Q01DX009 (ip), vehicle: saline) is 153 % of control.
For `CCOC(=O)/C=C/C(F)(F)F`, the T/C (dose: 30.0 mg/kg/injection, schedule: Q01DX005 (ip), vehicle: saline with Tween-80) is 100 % of control; the T/C (dose: 30.0 mg/kg/injection, schedule: Q01DX005 (ip), vehicle: saline) was 94 % of control; the T/C under setting [1] was 100 % of control; the T/C under setting [2] was 99 % of control and 101 % of control; the T/C under setting [3] was 100 % of control; the T/C under setting [4] was 100 % of control and 101 % of control. For the same molecule, the T/C under setting [5] was 107 % of control; the T/C under setting [6] is 100 % of control and 120 % of control.
As for `CCN(C=Nc1ccc(Cl)cc1C)CC`, the T/C is 105 % of control under setting [7] and 117 % of control under setting [8].
Take `O=C(O)c1cncc(C(=O)NCO)c1`: the T/C is 101 % of control (dose: 12.5 mg/kg/injection, schedule: Q01DX009 (ip), vehicle: saline); 101 % of control and 91 % of control (dose: 25.0 mg/kg/injection, schedule: Q01DX009 (ip), vehicle: saline); 99 % of control and 103 % of control and 91 % of control (dose: 200.0 mg/kg/injection, schedule: Q01DX009 (ip), vehicle: saline).
In the case of `COc1cc(OC(C)C)cc2c1C(=O)C(C(O)(O)C(F)(F)F)=CC2=O`, the T/C runs as follows: (dose: 15.0 mg/kg/injection, schedule: Q01DX005 (ip), vehicle: Klucel (hydroxypropylcellulose) (HPC)) 109 % of control; (dose: 30.0 mg/kg/injection, schedule: Q01DX005 (ip), vehicle: Klucel (hydroxypropylcellulose) (HPC)) 103 % of control; (dose: 60.0 mg/kg/injection, schedule: Q01DX005 (ip), vehicle: Klucel (hydroxypropylcellulose) (HPC)) 99 % of control.
Take `O=C(Cc1nc2ccccc2[nH]1)N/N=C1\SCC(=O)N1c1ccc(Cl)cc1`: the T/C reads like this: (dose: 50.0 mg/kg/injection, schedule: Q01DX005 (ip), vehicle: Klucel (hydroxypropylcellulose) (HPC)) 103 % of control; (dose: 100.0 mg/kg/injection, schedule: Q01DX005 (ip), vehicle: Klucel (hydroxypropylcellulose) (HPC)) 108 % of control; (dose: 200.0 mg/kg/injection, schedule: Q01DX005 (ip), vehicle: Klucel (hydroxypropylcellulose) (HPC)) 104 % of control.
As for `CN1CCN(C2=C(Cl)C(=O)c3ccccc3C2=O)CC1`, the T/C runs as follows: (dose: 1.25 mg/kg/injection, schedule: Q01DX009 (ip), vehicle: saline) 100 % of control; (dose: 2.5 mg/kg/injection, schedule: Q01DX009 (ip), vehicle: saline) 103 % of control; (dose: 5.0 mg/kg/injection, schedule: Q01DX009 (ip), vehicle: saline) 109 % of control.
As to `Cc1c(COC(=O)NC(C)C)c(COC(=O)NC(C)C)c2n1CCS2(=O)=O`, the T/C (dose: 25.0 mg/kg/injection, schedule: Q01DX005 (ip), vehicle: saline with Tween-80) was 92 % of control; the T/C under setting [9] was 100 % of control; the T/C under setting [10] was 92 % of control; the T/C under setting [11] is 86 % of control and 91 % of control; the T/C (dose: 400.0 mg/kg/injection, schedule: Q01DX005 (ip), vehicle: saline with Tween-80) is 91 % of control.
As for `c1cc[c]([Bi]([c]2ccccc2)[c]2ccccc2)cc1`, the T/C was 103 % of control (dose: 12.5 mg/kg/injection, schedule: Q01DX009 (ip), vehicle: Klucel (hydroxypropylcellulose) (HPC)); 106 % of control (dose: 25.0 mg/kg/injection, schedule: Q01DX009 (ip), vehicle: Klucel (hydroxypropylcellulose) (HPC)); 101 % of control and 112 % of control under setting [7].
As for `CCOC(=O)CNC(C)c1ccc(F)cc1` (stereo not given), the T/C reads like this: (dose: 50.0 mg/kg/injection, schedule: Q01DX005 (ip), vehicle: saline) 100 % of control; (dose: 100.0 mg/kg/injection, schedule: Q01DX005 (ip), vehicle: saline) 105 % of control; (dose: 200.0 mg/kg/injection, schedule: Q01DX005 (ip), vehicle: saline) 103 % of control.
On to `CC(=O)NN1C(=O)Cc2ccccc2C1C(N)=O` (stereo not given), for which the T/C is 103 % of control under setting [7]; 111 % of control under setting [8]; 103 % of control (dose: 200.0 mg/kg/injection, schedule: Q01DX009 (ip), vehicle: Klucel (hydroxypropylcellulose) (HPC)).
`O=c1ccn2c(n1)OC1C(O)C(CO)OC12` (stereo not given): the T/C under setting [12] is 100 % of control; the T/C (dose: 100.0 mg/kg/injection, schedule: Q04DX003 (ip), vehicle: saline) is 103 % of control; the T/C (dose: 200.0 mg/kg/injection, schedule: Q04DX003 (ip), vehicle: saline) was 102 % of control; the T/C (dose: 400.0 mg/kg/injection, schedule: Q04DX003 (ip), vehicle: saline) is 91 % of control.
With `Cn1c(=O)c2nc(-c3ccc(Cl)c(Cl)c3)cnc2n(C)c1=O`, the T/C was 96 % of control (dose: 100.0 mg/kg/injection, schedule: Q04DX002 (ip), vehicle: Klucel (hydroxypropylcellulose) (HPC)); 95 % of control (dose: 200.0 mg/kg/injection, schedule: Q04DX002 (ip), vehicle: Klucel (hydroxypropylcellulose) (HPC)); 98 % of control (dose: 400.0 mg/kg/injection, schedule: Q04DX002 (ip), vehicle: Klucel (hydroxypropylcellulose) (HPC)).
For the molecule `CCC(C)P(=O)(N1CC1C)N1CC1C` (stereo not given), the T/C was 104 % of control (dose: 1.5 mg/kg/injection, schedule: Q01DX009 (ip), vehicle: saline); 109 % of control (dose: 3.0 mg/kg/injection, schedule: Q01DX009 (ip), vehicle: saline); 109 % of control (dose: 6.0 mg/kg/injection, schedule: Q01DX009 (ip), vehicle: saline); 95 % of control (dose: 12.5 mg/kg/injection, schedule: Q04DX003 (ip), vehicle: saline); 95 % of control (dose: 25.0 mg/kg/injection, schedule: Q04DX003 (ip), vehicle: saline); 113 % of control under setting [12].
With `NC(=O)c1c[se]c(C2OC(CO)C(O)C2O)n1` (stereo not given), the T/C (dose: 25.0 mg/kg/injection, schedule: Q01DX005 (ip), vehicle: saline) is 154 % of control.
For `c1ccc(CCc2cccc3ccccc23)nc1`, the T/C by setting is: under setting [9], 98 % of control; under setting [10], 96 % of control; under setting [11], 100 % of control.
For `O=C1CCC2CCCCC2N1` (stereo not given), the T/C under setting [7] was 94 % of control and the T/C under setting [8] is 86 % of control.
For the molecule `O=C1c2ccccc2C(=O)N1CCCN1CCOCCOCCN(CCCN2C(=O)c3ccccc3C2=O)CCOCC1`, the T/C by setting is: (dose: 50.0 mg/kg/injection, schedule: Q01DX005 (ip), vehicle: saline + Tween-80 + alcohol) 105 % of control; (dose: 100.0 mg/kg/injection, schedule: Q01DX005 (ip), vehicle: saline + Tween-80 + alcohol) 97 % of control.
As for `CCCCOCN(CC(CC)CCCC)CC(CC)CCCC` (stereo not given), the T/C is 98 % of control under setting [9], 100 % of control under setting [10] and 104 % of control under setting [11].
For the molecule `COC(=O)CCSCc1ccccc1`, the T/C under setting [2] is 100 % of control, the T/C under setting [4] was 100 % of control and the T/C under setting [6] was 109 % of control.
`O/N=C/C(=Nc1ccccc1N=C(/C=N/O)NO)NO`: the T/C by setting is: under setting [1], 95 % of control; under setting [3], 103 % of control; under setting [5], 94 % of control.
